Data: patent US11076595B2, “1-(n,n-disubstituted carbamoyl) 4-(substituted sulfonyl)triazolin-5-one derivative, 4-(n,n-disubstituted carbamoyl) 1-(substituted sulfonyl)triazolin-5-one derivative, and herbicide containing said derivative as active ingredient” (HOKKO CHEMICAL INDUSTRY CO., LTD., priority 2017, dated 2021)

Experiments:
Type in all cases: in vivo
[1] = test system: Lindernia pyxidaria; experiment: Test Example 12: herbicidal effect test by treatment during growing period in paddy field; settings: 120 g/10a; treatment seven days after sowing in flooded paddy pot; assessed 14 days after treatment
How it was run: (§1)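 Puddled, fertilized paddy soil in Wagner pots, sown with 30 seeds per species at 0–1 cm and flooded to ~3 cm in a glass greenhouse. Emulsifiable concentrate dripped into water 7 days after sowing at 120 g a.i. per 10 are. Suppression % from dry weight vs untreated, 14 days post-treatment, two replicates.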

[2] = test system: Scirpus juncoides; experiment: as above; settings: 120 g/10a; treatment seven days after sowing in flooded paddy pot; assessed 14 days after treatment
How it was run: as §1

[3] = test system: Monochoria vaginalis; experiment: as above; settings: 120 g/10a; treatment seven days after sowing in flooded paddy pot; assessed 14 days after treatment
How it was run: as §1

[4] = test system: Echinochloa crus-galli; experiment: as above; settings: 120 g/10a; treatment seven days after sowing in flooded paddy pot; assessed 14 days after treatment
How it was run: as §1

[5] = test system: Lindernia pyxidaria; experiment: Test Example 11: herbicidal effect test by soil treatment in paddy field; settings: 120 g/10a active ingredient, 14 days after treatment
How it was run: (§2)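 Seeds were sown 0-1 cm deep in puddled, fertilised paddy soil in Wagner pots and kept under about 3 cm of flooding in a greenhouse. Diluted emulsifiable concentrate was added dropwise right after sowing at 120 g a.i. per 10 are. Suppression (%) came from dry weight versus untreated pots after 14 days, two replicates.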

[6] = test system: Scirpus juncoides; experiment: as above; settings: 120 g/10a active ingredient, 14 days after treatment
How it was run: as §2

[7] = test system: Monochoria vaginalis; experiment: as above; settings: 120 g/10a active ingredient, 14 days after treatment
How it was run: as §2

[8] = test system: Echinochloa crus-galli; experiment: as above; settings: 120 g/10a active ingredient, 14 days after treatment
How it was run: as §2

[9] = test system: Echinochloa crus-galli; experiment: Test Example 14: herbicidal effect test by foliage treatment in upland field; settings: 7 days after sowing, 120 g/10a, 14 days after treatment
Experimental: (§3) This test was performed with two replications per one formulation concentration plot, and 14 days after the formulation treatments, the weed suppression rate (%) was determined according to the following equation (Math. 2). Weed suppression rate (%)=(1−average dry weight (g) of plants in treated plots/average dry weight (g) of plants in untreated plots)×100 [Math. 2]
(§4) A pot having a size of 36 cm^2 was filled with field soil (alluvial soil) and after uniformly mixing the soil of the surface layer of 1 cm with 20 grains of each weed seed of crabgrass, Echinochloa crus-galli, Chenopodium album and Amaranthus viridis, the surface layer was pressed lightly. Seven Days after the sowing, an emulsifiable concentrate prepared according to Formulation Example 15 by using the compound shown in Table 12 below was diluted with water, and the water-diluted formulation was sprayed on the soil surface at a ratio of 100 liter per 10 are. The application rate of the active ingredient, by conversion, corresponded to 120 g per 10 are. Fourteen Days after the formulation treatment, the herbicidal effect was evaluated by the same criteria as in Test Example 11.

[10] = test system: Amaranthus viridis; experiment: as above; settings: 7 days after sowing, 120 g/10a, 14 days after treatment
Experimental: as §3, §4

[11] = test system: crabgrass; experiment: as above; settings: 7 days after sowing, 120 g/10a, 14 days after treatment
Experimental: as §4

[12] = test system: Chenopodium album; experiment: as above; settings: 7 days after sowing, 120 g/10a, 14 days after treatment
Experimental: as §4

SMILES	Weed suppression rate (%) Lindemia pyxidaria [1] [%]	Weed suppression rate (%) Scirpus juncoides [2] [%]	Weed suppression rate (%) Monochoria vaginalis [3] [%]	Weed suppression rate (%) Echinochloa crus-galli [4] [%]	Weed suppression rate (%) Lindemia pyxidaria [5] [%]	Weed suppression rate (%) Scirpus juncoides [6] [%]	Weed suppression rate (%) Monochoria vaginalis [7] [%]	Weed suppression rate (%) Echinochloa crus-galli [8] [%]	herbicidal effect, Echinochloa crus-galli [9] [%]	herbicidal effect, Amaranthus viridis [10] [%]	herbicidal effect, Crabgrass [11] [%]	herbicidal effect, Chenopodium album [12] [%]
CC(C)N(C(=O)n1cnn(S(=O)(=O)c2ccc(F)cc2)c1=O)c1ccccc1 [Compound 11-464]	60	90	80	90	80	80	60	100	60	50	90	50
CC(C)N(C(=O)n1cnn(S(=O)(=O)c2cccs2)c1=O)c1ccccc1 [Compound 11-1011]	80	90	80	90	80	90	80	90	80	90	90	80
CC(C)N(C(=O)n1cnn(S(=O)(=O)N(C)C)c1=O)c1ccc(Cl)cc1F [Compound 11-1072]	90	90	60	100	80	90	80	90	80	90	90	80
CC(C)N(C(=O)n1cnn(S(=O)(=O)C2CC2)c1=O)c1ccc(F)cc1Cl [Compound 11-205]	80	100	100	100	100	100	90	100	100	70	100	70
CC(C)N(C(=O)n1cnn(S(=O)(=O)c2cccc(C(F)(F)F)c2)c1=O)c1ccc(Cl)cc1Br [Compound 11-735]	90	100	90	100	90	100	90	100	60	70	100	70
CC(C)N(C(=O)n1cnn(S(=O)(=O)C2CCCCC2)c1=O)c1cccc(F)c1 [Compound 11-285]	80	90	80	90	80	90	80	90	80	90	90	80
CN(C(=O)n1cnn(S(=O)(=O)C2CCCCC2)c1=O)c1ccc(F)cc1F [Compound 11-1129]	70	100	80	100	100	100	100	100	70	70	90	60
Cc1cc(Cl)ccc1N(C(=O)n1cnn(S(=O)(=O)C2CC2)c1=O)C(C)C [Compound 11-213]	80	90	80	90	90	90	60	100	80	90	90	80
CC(C)N(C(=O)n1cnn(S(C)(=O)=O)c1=O)c1c(F)c(F)cc(F)c1F [Compound 11-17]	70	100	100	100	90	100	80	100	70	100	60	30
CC(C)N(C(=O)n1cnn(S(=O)(=O)c2cccs2)c1=O)c1ccc(F)c(F)c1F [Compound 11-1025]	80	100	100	100	100	100	100	100	100	60	100	60
